ChEMBL document CHEMBL4699619, “Development of a Polo-like Kinase-1 Polo-Box Domain Inhibitor as a Tumor Growth Suppressor in Mice Models” (J Med Chem, 2020)
Activity calls are given as the source filed them. No cut-off for these calls is given here. Non-standard residues stand in square brackets, D forms with d. Residues, ends and D or L forms follow the SMILES beside them. pT = C[C@@H](OP(=O)(O)O)[C@H](N)C(=O)O

Experiments:
[1] = target: T1, Serine/threonine-protein kinase PLK1 (Homo sapiens, UniProt P53350); experiment: Displacement of 5-carboxyfluorescein-labeled PBD-binding peptide from PLk1 PBD (unknown origin) expressed in bacterial expression system incubated for 10 mins by fluorescence polarization assay
T1 sequence (P53350 whole entry): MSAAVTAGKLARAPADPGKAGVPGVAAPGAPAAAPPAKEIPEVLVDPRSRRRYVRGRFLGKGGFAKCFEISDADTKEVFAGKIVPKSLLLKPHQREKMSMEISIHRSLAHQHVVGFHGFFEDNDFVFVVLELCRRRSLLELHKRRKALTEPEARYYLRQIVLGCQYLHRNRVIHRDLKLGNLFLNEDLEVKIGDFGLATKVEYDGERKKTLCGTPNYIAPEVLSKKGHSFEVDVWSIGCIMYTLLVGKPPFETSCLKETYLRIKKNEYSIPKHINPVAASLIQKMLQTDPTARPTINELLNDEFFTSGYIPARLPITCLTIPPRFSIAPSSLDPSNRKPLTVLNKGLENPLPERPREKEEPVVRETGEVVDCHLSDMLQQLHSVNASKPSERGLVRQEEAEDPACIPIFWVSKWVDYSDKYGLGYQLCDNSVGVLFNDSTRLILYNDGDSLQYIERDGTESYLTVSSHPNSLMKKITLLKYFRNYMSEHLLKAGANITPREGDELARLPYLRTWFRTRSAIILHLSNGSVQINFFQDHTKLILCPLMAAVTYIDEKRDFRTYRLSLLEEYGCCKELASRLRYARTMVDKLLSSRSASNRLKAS

[2] = Drug uptake in tumor of BALB/c nu/nu mouse xenografted with Hela cells using Cy5-conjugated compound at 5 mg/kg, iv measured after 48 hrs by fluorescence microscopic analysis; type: ADME, organism-based, Neoplasm; details: in vivo
[3] = tested on: HeLa; experiment: Induction of apoptosis in human Hela cells assessed as dead cells at 200 uM after 48 hrs by fluorescence microscope analysis relative to control; type: functional
[4] = Ratio of drug uptake in BALB/c nu/nu mouse xenografted with Hela cells tumor to muscle using Cy5-conjugated compound at 5 mg/kg, iv measured after 30 hrs by fluorescence microscopic analysis; type: ADME, organism-based; details: in vivo
[5] = Ratio of drug uptake in BALB/c nu/nu mouse xenografted with Hela cells tumor to muscle using Cy5-conjugated compound at 5 mg/kg, iv measured after 6 hrs by fluorescence microscopic analysis; type: ADME, organism-based; details: in vivo
[6] = Volume of distribution at steady state in ICR mouse at 5 mg/kg, iv measured upto 24 hrs by LC/MS/MS analysis; type: ADME, organism-based; details: in vivo
[7] = Drug uptake in human Hela cells using Cy5-conjugated compound at 200 uM after 18 hrs by fluorescence microscopic analysis; type: ADME, cell-based
[8] = tested on: HeLa; experiment: Induction of cell cycle arrest in human Hela cells assessed as number of cells at G0/G1 phase at 200 uM after 24 hrs by flow cytometry analysis (reference value: 74.14%); type: functional
[9] = AUC(infinity) in ICR mouse at 5 mg/kg, iv measured upto 24 hrs by LC/MS/MS analysis; type: ADME, organism-based; parameters: route intravenous, dose 5 mg/kg, time <=24; details: in vivo
[10] = tested on: HeLa; experiment: Induction of apoptosis in human Hela cells assessed as dead cells at 200 uM after 24 hrs by fluorescence microscope analysis relative to control; type: functional
[11] = Clearance in ICR mouse at 5 mg/kg, iv measured upto 24 hrs by LC/MS/MS analysis; type: ADME, organism-based; details: in vivo
[12] = tested on: HeLa; experiment: Induction of cell cycle arrest in human Hela cells assessed as number of cells at S phase at 200 uM after 24 hrs by flow cytometry analysis (reference value: 7.86%); type: functional
[13] = target: T1, Serine/threonine-protein kinase PLK1; experiment: Inhibition of PLK1 PBD interaction with p-Cdc25c in human Hela cells assessed as decrease in phosphorylated Cdc25c co-preciptated with GST-PLK1 PBD by pull down assay; type: cell-based
[14] = tested on: HeLa; experiment: Antitumor activity against human Hela cells xenografted in Balb/c nu nu mouse assessed as decrease in tumor size at 5 mg/kg, iv for 29 days; type: functional, organism-based; details: time 29.0 day
[15] = Drug uptake in muscle of BALB/c nu/nu mouse xenografted with Hela cells using Cy5-conjugated compound at 5 mg/kg, iv measured after 48 hrs by fluorescence microscopic analysis; type: ADME, organism-based, Muscle tissue; details: in vivo
[16] = Ratio of drug uptake in BALB/c nu/nu mouse xenografted with Hela cells tumor to muscle using Cy5-conjugated compound at 5 mg/kg, iv measured after 48 hrs by fluorescence microscopic analysis; type: ADME, organism-based; details: in vivo
[17] = Toxicity in Balb/c nu nu mouse xenografted with human Hela cells assessed as changed in body weight at 5 mg/kg, iv for 29 days; type: organism-based; details: in vivo, 696 h, time 29 day
[18] = Ratio of drug uptake in BALB/c nu/nu mouse xenografted with Hela cells tumor to muscle using Cy5-conjugated compound at 5 mg/kg, iv measured after 24 hrs by fluorescence microscopic analysis; type: ADME, organism-based; details: in vivo
[19] = tested on: HeLa; experiment: Induction of cell cycle arrest in human Hela cells assessed as number of cells at G2/M phase at 200 uM after 24 hrs by flow cytometry analysis (reference value: 18%); type: functional
[20] = target: T1, Serine/threonine-protein kinase PLK1; experiment: Inhibition PLK1 localization in mitotic kinetochore in human Hela cells at 200 uM after 18 hrs by immunofluorescence analysis relative to control; type: cell-based
[21] = species: Homo sapiens; experiment: Selectivity ratio for binding affinity for PLK2 PBD (unknown origin) to binding affinity for PLK1 PBD (unknown origin)
[22] = Half life in ICR mouse at 5 mg/kg, iv measured upto 24 hrs by LC/MS/MS analysis; type: ADME, organism-based; details: in vivo
[23] = Mean residence time in ICR mouse at 5 mg/kg, iv measured upto 24 hrs by LC/MS/MS analysis; type: ADME, organism-based; details: in vivo
[24] = target: Serine/threonine-protein kinase PLK3 (Homo sapiens, UniProt Q9H4B4); experiment: Displacement of 5-carboxyfluorescein-labeled PBD-binding peptide from PLk3 PBD (unknown origin) expressed in bacterial expression system incubated for 10 mins by fluorescence polarization assay
Serine/threonine-protein kinase PLK3, sequence (Q9H4B4 whole entry): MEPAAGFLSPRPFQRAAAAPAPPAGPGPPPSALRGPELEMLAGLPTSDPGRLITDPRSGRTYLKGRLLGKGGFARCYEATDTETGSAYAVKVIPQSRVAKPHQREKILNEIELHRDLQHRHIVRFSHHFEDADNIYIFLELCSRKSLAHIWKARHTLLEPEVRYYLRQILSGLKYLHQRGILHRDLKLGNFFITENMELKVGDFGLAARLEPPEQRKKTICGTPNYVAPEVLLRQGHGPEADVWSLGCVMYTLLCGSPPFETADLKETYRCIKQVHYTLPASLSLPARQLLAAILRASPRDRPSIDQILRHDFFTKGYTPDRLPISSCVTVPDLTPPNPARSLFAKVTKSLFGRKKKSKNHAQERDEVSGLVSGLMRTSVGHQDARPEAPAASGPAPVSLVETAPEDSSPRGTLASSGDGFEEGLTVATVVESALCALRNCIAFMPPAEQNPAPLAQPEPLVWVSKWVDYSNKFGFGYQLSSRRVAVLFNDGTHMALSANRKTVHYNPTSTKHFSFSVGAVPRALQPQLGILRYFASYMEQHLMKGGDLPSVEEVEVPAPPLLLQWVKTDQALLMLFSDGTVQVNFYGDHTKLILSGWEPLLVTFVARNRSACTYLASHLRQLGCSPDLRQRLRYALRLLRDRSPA

[25] = AUClast in ICR mouse at 5 mg/kg, iv measured upto 24 hrs by LC/MS/MS analysis; type: ADME, organism-based; parameters: route intravenous, dose 5 mg/kg, time <=24; details: in vivo
[26] = tested on: HeLa; experiment: Induction of cell cycle arrest in human Hela cells assessed as number of cells at S phase at 100 nM after 24 hrs by flow cytometry analysis (reference value: 7.86%); type: functional
[27] = tested on: HeLa; experiment: Induction of apoptosis in human Hela cells assessed as dead cells at 100 nM after 24 hrs by fluorescence microscope analysis relative to control; type: functional
[28] = tested on: HeLa; experiment: Induction of cell cycle arrest in human Hela cells assessed as number of cells at G2/M phase at 100 nM after 24 hrs by flow cytometry analysis (reference value: 18%); type: functional
[29] = tested on: HeLa; experiment: Induction of cell cycle arrest in human Hela cells assessed as number of cells at G0/G1 phase at 100 nM after 24 hrs by flow cytometry analysis (reference value: 74.14%); type: functional
[30] = tested on: HeLa; experiment: Induction of apoptosis in human Hela cells assessed as dead cells at 100 nM after 48 hrs by fluorescence microscope analysis relative to control; type: functional

CC[C@H](C)[C@H](NC(=O)[C@H](C)NC(=O)[C@@H](NC(=O)[C@H](CO)NC(=O)[C@H](Cc1cnc[nH]1)NC(=O)[C@H](CC(C)C)NC(=O)[C@@H]1CCCN1C(C)=O)[C@@H](C)OP(=O)(O)O)C(=O)N[C@@H](Cc1ccc(O)cc1)C(=O)N[C@@H](C)C(N)=O (Ac-PLHS[pT]AIYA-NH2)
IC50 [1]: 0.23 µM

O=C1NC(=O)C(=Cc2cn(CCNC(=O)c3ccccc3)nc2-c2ccccc2)C(=O)N1
inhibition [1]: inactive

CNc1ccc(C(=O)NCCn2cc(C=C3C(=O)NC(=O)NC3=O)c(-c3ccccc3)n2)cc1
Drug uptake [2]: Active | Activity [3]: 71.1% | Ratio [4]: 4.11 | Ratio [5]: 2.1 | Vdss [6]: 0.31 L/kg | Drug uptake [7]: Active | Activity [8]: 54.47% | AUC [9]: 11535.29 ng·h/mL | Activity [10]: 24.6% | CL [11]: 7.17 mL/min/kg | Activity [12]: 18.41% | inhibition [13]: Active | Activity [14]: Active | IC50 [1]: 16.4 µM | Drug uptake [15]: Active | Ratio [16]: 4.2 | Activity [17]: Non-Toxic | Ratio [18]: 3.9 | Activity [19]: 27.12% | inhibition [20]: 61% | Ratio [21]: 2 | t1/2 [22]: 7.73 h | MRT [23]: 0.72 h | inhibition (INH) [24]: Not Active | AUClast [25]: 11504.31 ng·h/mL

O=C1NC(=O)C(=Cc2cn(Cc3ccc(OC(F)(F)F)cc3)nc2-c2ccccc2)C(=O)N1
inhibition [1]: inactive

O=C1NC(=O)C(=Cc2cn(-c3ccccc3)nc2-c2ccccc2)C(=O)N1
IC50 [1]: 32.2 µM

O=C1C(=Cc2cn(-c3ccccc3)nc2-c2ccccc2)C(=O)N(CCc2ccccc2)C(=O)N1CCc1ccccc1
inhibition [1]: inactive

CS(=O)(=O)c1ccc(C(=O)NCCn2cc(C=C3C(=O)NC(=O)NC3=O)c(-c3ccccc3)n2)cc1
inhibition [1]: inactive

O=C1NC(=O)C(=Cc2cn(Cc3cccc(OC(F)(F)F)c3)nc2-c2ccccc2)C(=O)N1
inhibition [1]: inactive

O=C1NC(=O)C(=Cc2cn(Cc3ccccc3)nc2-c2ccccc2)C(=O)N1
IC50 [1]: 52.7 µM

O=C1NC(=O)C(=Cc2cn(CCCCc3ccccc3)nc2-c2ccccc2)C(=O)N1
inhibition [1]: Active

CC[C@@H]1C(=O)N(C)c2cnc(Nc3ccc(C(=O)NC4CCN(C)CC4)cc3OC)nc2N1C1CCCC1 [BI-2536]
Activity [26]: 9.9% | Activity [27]: 31.1% | Activity [14]: Active | Activity [17]: Non-Toxic | Activity [28]: 28.76% | Activity [29]: 61.34% | Activity [30]: 91.5%

O=C1NC(=O)C(=Cc2cn(CCN3CCOCC3)nc2-c2ccccc2)C(=O)N1
IC50 [1]: 71 µM

CSc1ccc(Cn2cc(C=C3C(=O)NC(=O)NC3=O)c(-c3ccccc3)n2)cc1
inhibition [1]: inactive

O=C1NC(=O)C(=Cc2cn(CCNC(=O)C3CCCCC3)nc2-c2ccccc2)C(=O)N1
inhibition [1]: inactive

CN1C(=O)C(=Cc2cn(-c3ccccc3)nc2-c2ccccc2)C(=O)N(C)C1=O
inhibition [1]: inactive

CCCN1C(=O)C(=Cc2cn(-c3ccccc3)nc2-c2ccccc2)C(=O)N(CCC)C1=O
inhibition [1]: inactive
